This note sets out measurements from patent US8461183B2, “PPAR agonist compounds, preparation and uses” (Genfit, priority 2008, dated 2013).

pEC50: −log10 of the molar value.

One assay deals with T1, hPPARδ (Homo sapiens, UniProt Q03181).
T1 construct: corresponding to the DEF domains (structural elements of the promoter of the PPARs: D=hinge, EF=ligand fixation domain and AF2 fixation site); expressed in transfected cells; host or cells: COS-7 (monkey kidney fibroblasts)
T1 sequence (Q03181 211-439 limits assumed): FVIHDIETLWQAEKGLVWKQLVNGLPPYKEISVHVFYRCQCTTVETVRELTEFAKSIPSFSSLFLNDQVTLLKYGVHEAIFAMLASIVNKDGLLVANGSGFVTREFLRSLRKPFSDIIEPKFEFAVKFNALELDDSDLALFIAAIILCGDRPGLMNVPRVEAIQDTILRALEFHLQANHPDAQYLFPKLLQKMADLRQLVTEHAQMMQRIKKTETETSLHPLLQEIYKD
Briefly: Gal4-hPPARδ chimera transactivation (luciferase) in COS-7 cells. The note with it: for pEC50 / Emax: COS-7 cells, Gal4-hPPARδ, 24 hours; for pEC50: luciferase, read-out: PPARδ EC50; for Emax: relative to maximum activation obtained with GW501516, read-out: PPARδ TOP % (maximum activation). The class given is cell-based. Summed up: (§1)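 COS-7 cells transfected with Gal4-DBD fused to human PPARγ or PPARδ DEF (hinge/ligand-binding) domain plus Gal4(RE)_TkpGL3 luciferase reporter (1:10).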

Assay [1] has as its system PPARδ target genes (PDK4, CPT1b, UCP2) in murine myocytes. Put plainly: Expression of PPARδ target genes in murine myocytes (differentiated C2C12 cells). The class given is cell-based. The note with it: 24 hours, Cpd 7 at 0.1, 1, 10 μM, Cpd 24 at 0.2, 2, 20 μM, normalized to 36B4. Here is the method: The PPARδ agonist properties previously measured in vitro were evaluated by measuring, in murine myocytes, the expression of genes involved in lipid and carbohydrate metabolism and energy expenditure (PDK4, CPT1b, UCP2). Regulation of expression of these genes, in this cell type, is a direct consequence of the activation of PPARδ by the compounds according to the invention. The greater the increase in expression of the genes, the more the compound according to the invention is a stimulator of metabolism in muscle cells (Dressel U et al., 2003).
The C2C12 murine cells (from ECACC) are cultivated in DMEM medium (Gibco; 41965-039) supplemented with 1% L-glutamine (Gibco; 25030), 1% penicillin/streptomycin (VWR; BWSTL0022/100) and 10% decomplemented fetal calf serum (FCS. Gibco; 10270-106).
The cells are seeded in 24-well plates at a density of 50×10^3 cells/well. At confluence, the medium is replaced with a differentiation medium (base culture medium supplemented with 2% of horse serum (Gibco; 26050-088)) then culture is continued at 37° C. and 5% CO2 for 7 days in order to permit differentiation of the myoblasts into myocytes.
After 6 days of differentiation, the cells are put in a deprivation medium (base culture medium without serum) for 6 hours. The cells are then treated with the compounds according to the invention in the deprivation medium. The compounds according to the invention were tested at doses of 0.1, 1, 10 μM and 0.2, 2 and 20 μM respectively. The compounds according to the invention were dissolved in dimethylsulfoxide (DMSO, Sigma; D5879). The cells are treated for 24 hours at 37° C., 5% CO2. The effects for the compounds tested were compared with the effect of DMSO alone at a concentration of 0.1%.
These procedures were performed on the cells essentially as described in Example 10 (point c) of the Protocols.
The following primer pairs specific to the genes investigated were used: […]

In another assay the target is T2, hPPARγ (Homo sapiens, UniProt P37231).
T2 construct: corresponding to the DEF domains (structural elements of the promoter of the PPARs: D=hinge, EF=ligand fixation domain and AF2 fixation site); expressed in transfected cells; host or cells: COS-7 (monkey kidney fibroblasts)
T2 sequence (P37231 238-503 limits assumed): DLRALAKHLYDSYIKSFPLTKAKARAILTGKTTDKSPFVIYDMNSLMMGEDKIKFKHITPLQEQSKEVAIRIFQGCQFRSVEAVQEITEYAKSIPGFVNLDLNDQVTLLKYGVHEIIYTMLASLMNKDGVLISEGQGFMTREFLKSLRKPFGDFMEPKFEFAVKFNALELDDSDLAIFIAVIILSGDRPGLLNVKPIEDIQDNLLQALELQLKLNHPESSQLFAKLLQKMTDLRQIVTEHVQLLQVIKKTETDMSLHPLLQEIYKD
Put plainly: Gal4-hPPARγ chimera transactivation (luciferase) in COS-7 cells. Type of assay: cell-based. As to conditions: 24 hours; for pEC50: luciferase, read-out: PPARγ EC50; for Emax: relative to maximum activation obtained with rosiglitazone, read-out: PPARγ TOP % (maximum activation). Summed up:
as §1

A further assay has as its target T3, hPPARα (Homo sapiens, UniProt Q07869).
T3 construct: corresponding to the DEF domains (structural elements of the promoter of the PPARs: D=hinge, EF=ligand fixation domain and AF2 fixation site); expressed in transfected cells; host or cells: COS-7 (monkey kidney fibroblasts)
T3 sequence (Q07869 239-466 limits assumed): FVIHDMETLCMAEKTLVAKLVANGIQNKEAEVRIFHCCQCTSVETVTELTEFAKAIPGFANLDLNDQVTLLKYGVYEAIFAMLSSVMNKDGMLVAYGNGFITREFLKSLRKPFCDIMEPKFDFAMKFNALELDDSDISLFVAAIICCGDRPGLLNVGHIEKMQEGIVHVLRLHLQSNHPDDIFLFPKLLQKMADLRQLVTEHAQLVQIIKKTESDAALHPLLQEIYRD
Put plainly: Gal4-hPPARα chimera transactivation (luciferase) in COS-7 cells. The class given is cell-based. The note with it: COS-7 cells, Gal4-hPPARα, 24 hours; for pEC50: luciferase, read-out: PPARα EC50; for Emax: relative to maximum activation obtained with fenofibric acid, read-out: PPARα TOP % (maximum activation). A digest of the protocol: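 COS-7 cells transiently co-transfected with Gal4 DBD–human PPARα, γ or δ DEF-domain chimeras plus Gal4(RE)_TkpGL3 luciferase reporter (1/10), seeded serum-free, then compound-treated 24 h at 37 °C in 1% Ultroser. Luciferase read after lysis; EC50 and TOP % relative to maximal activation by fenofibric acid (α), rosiglitazone (γ) or GW501516 (δ).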

Assay [2] relates to 3T3-L1 murine pre-adipocytes. Put plainly: PPARγ functional effect: adipogenesis in 3T3-L1 pre-adipocytes (triglycerides, adiponectin). The class given is cell-based, Mus musculus. As to conditions: 3T3-L1, 9 days of treatment, 30 nM to 30 μM. Here is the method: The functional effect of activation of PPARγ is evaluated in vitro on a line of pre-adipocyte cells 3T3-L1 (Thompson G M et al., 2004) by measuring the concentration of intracellular triglycerides and the concentration of adiponectin secreted in the culture medium after 9 days of treatment with the compounds according to the invention.
At confluence, the cells were then rinsed with PBS (Phosphate Buffered Saline solution) and the culture medium was replaced with DMEM 4.5 g/L glucose (10% FCS, 1% L-glutamine, 100 units/mL penicillin and 100 μg/mL streptomycin, 0.25 mM) containing a cocktail for initiation of adipocyte differentiation (IBMX (3-isobutyl-1-methylxanthine Sigma; 17018), 0.1 μM dexamethasone (Sigma; D1756) and 0.4 μM of insulin (Sigma; I2643). The cells were also treated with the compounds according to the invention (1 μL of solubilized compound/mL of medium, 200 μL per well).
After 2 days of incubation, the cells were washed with PBS and the differentiation medium was replaced with DMEM 4.5 g/L of glucose supplemented with 10% FCS, 1% L-glutamine, 100 units/mL penicillin and 100 μg/mL streptomycin, 0.4 μM insulin, and the compounds according to the invention for the purpose of completing cellular differentiation and obtaining adipocytes. The medium was changed every 2 days until total differentiation. After culture for 9 days, the treatment was stopped by withdrawing the culture medium, which was stored for assaying secreted adiponectin. The cells were then washed twice with PBS and placed in isopropanol for membrane permeabilization. The content of intracellular triglycerides was evaluated immediately.
Quantification of intracellular triglycerides was performed with the “Triglyceride Enzymatic PAP1000” kit (bioMérieux; 61238) according to the supplier's recommendations. Secreted adiponectin was measured in the culture medium using the “Mouse Adiponectin/Acrp30 Elisa Kit” kit (R&D Systems; DY1119) according to the supplier's recommendations.

The test system of another assay is 3 PPAR isoforms. Put plainly: PPAR agonist properties of compound 1, different method and equipment (not described). Here is the method:
The measured activities differ depending on the compound tested and the compounds according to the invention are also observed to have varying selectivity with respect to the various isoforms of hPPAR: • Certain compounds according to the invention are selective for a subtype of PPAR. […] Compound 1 of the invention was also tested for its PPAR agonist properties. […] As the measurements obtained for compound 1 were carried out according to a different method and with different equipment, relative to the other 53 compounds in the examples, the corresponding results are not presented in Table 8-1 above.

`CC(C)(C)Oc1nc(-c2ccccc2)ccc1COc1ccc(OCC(=O)O)cc1` [Cpd 7]: at hPPARδ, the pEC50 is 6.26 and the Emax worked out at 96.5%. Also, on hPPARδ (Gal4-hPPAR chimeras, COS-7), the “selectivity among hPPAR isoforms (hPPARδ)” value is given as “selective with respect to hPPARδ”. Also, in assay [1], the “expression of CPT1b” value is “significant effects of stimulating expression”, the “expression of PDK4” value is “significant effects of stimulating expression” and the “expression of UCP2” value was “significant effects of stimulating expression”. For the same compound, at hPPARγ, the pEC50 is 4.33 and the Emax stood at 20.6%. Moreover, on hPPARα, the pEC50 was 4.40 and the Emax amounted to 28.9%.
With `COc1nc(-c2ccc(C(F)(F)F)cc2)ccc1CNc1ccc(CCC(=O)O)cc1` [Cpd 36, 3-(4-(((2-methoxy-6-(4-(trifluoromethyl)phenyl)pyridin-3-yl)methyl)amino)-phenyl)propanoic acid], on hPPARδ, the pEC50 is 6.23 and the Emax worked out at 93.9%. On hPPARγ, the pEC50 is 5.82 and the Emax is 123%. Moreover, on hPPARα, the pEC50 is 6.52 and the Emax amounted to 78%. Moreover, in assay [2], the “accumulation of triglycerides in adipocytes” value is given as “dose-dependent stimulation” and the secretion of adiponectin result is “dose-dependent stimulation”.
For `COc1nc(-c2ccccc2)ccc1COc1ccc(OC(C)(C)C(=O)O)cc1` [Cpd 1, 2-(4-((2-methoxy-6-phenylpyridin-3-yl)methoxy)phenoxy)-2-methyl-propanoic acid], in the assay on 3 PPAR isoforms, the “selectivities for the 3 PPAR isoforms” value is “comparable selectivities for the 3 PPAR isoforms”.
With `CCCCCCOc1nc(-c2ccccc2)ccc1COc1ccc(OCC(=O)O)cc1` [Cpd 15, 2-(4-((2-hexyloxy-6-phenylpyridin-3-yl)methoxy)phenoxy)ethanoic acid], the pEC50 on hPPARδ is 5.82; at hPPARγ it was 4.91; at hPPARα it was 5.49. In addition, the Emax at hPPARδ amounted to 96.5%; at hPPARγ, 46.6%; on hPPARα, 78.2%.
As for `CC#CC(CC(=O)O)c1ccc(OCc2cc(-c3ccccc3)cnc2OC)cc1` (stereo not shown) [Cpd 52, 3-(4-((2-methoxy-5-phenylpyridin-3-yl)methoxy)phenyl)hex-4-ynoic acid], the pEC50 at hPPARδ is 4.70; on hPPARγ, 5.56; on hPPARα it was 4.86. Besides, the Emax at hPPARδ was determined as 16.1%; on hPPARγ, 54.8%; on hPPARα, 34.3%.
Consider `COc1nc(-c2ccccc2)ccc1CNc1ccc(OC(C)(C)C(=O)O)cc1` [Cpd 12, 2-(4-(((2-methoxy-6-phenylpyridin-3-yl)methyl)amino)phenoxy)-2-methyl-propanoic acid], for which the pEC50 on hPPARδ was 5.63; on hPPARγ, 5.58; at hPPARα, 6.71. The Emax came out at 84.2% on hPPARδ, 44.9% on hPPARγ and 78.1% on hPPARα.

What is called pEC50 is the negative decadic logarithm of the EC50, by convention in mol/L.
